pKi: −log10 of the molar value. A value given as a limit tells only on which side of the number the result lay.

As a reminder, the pKi is −log10 of the Ki, conventionally taken in molar units. Low values mean a large Ki, high ones a small Ki.

For one experiment, the target named is T1, α5β3γ2 GABAA receptors (Ltk cell membranes) (Homo sapiens, UniProt P18507+P31644).
T1 construct: membranes
T1 sequence (P31644 32-462): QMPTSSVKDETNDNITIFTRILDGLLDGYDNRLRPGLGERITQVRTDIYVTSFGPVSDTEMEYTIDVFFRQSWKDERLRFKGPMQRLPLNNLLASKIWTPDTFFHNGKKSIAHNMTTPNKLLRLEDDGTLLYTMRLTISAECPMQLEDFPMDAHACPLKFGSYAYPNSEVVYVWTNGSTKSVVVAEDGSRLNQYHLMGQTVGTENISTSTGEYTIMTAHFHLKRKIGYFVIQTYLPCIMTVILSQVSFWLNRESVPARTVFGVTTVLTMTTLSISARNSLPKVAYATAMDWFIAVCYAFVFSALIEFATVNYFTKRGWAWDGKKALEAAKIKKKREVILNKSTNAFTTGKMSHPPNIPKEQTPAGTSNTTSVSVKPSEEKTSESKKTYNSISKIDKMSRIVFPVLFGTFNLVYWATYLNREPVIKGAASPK
T1 sequence (P28472 26-473 partner): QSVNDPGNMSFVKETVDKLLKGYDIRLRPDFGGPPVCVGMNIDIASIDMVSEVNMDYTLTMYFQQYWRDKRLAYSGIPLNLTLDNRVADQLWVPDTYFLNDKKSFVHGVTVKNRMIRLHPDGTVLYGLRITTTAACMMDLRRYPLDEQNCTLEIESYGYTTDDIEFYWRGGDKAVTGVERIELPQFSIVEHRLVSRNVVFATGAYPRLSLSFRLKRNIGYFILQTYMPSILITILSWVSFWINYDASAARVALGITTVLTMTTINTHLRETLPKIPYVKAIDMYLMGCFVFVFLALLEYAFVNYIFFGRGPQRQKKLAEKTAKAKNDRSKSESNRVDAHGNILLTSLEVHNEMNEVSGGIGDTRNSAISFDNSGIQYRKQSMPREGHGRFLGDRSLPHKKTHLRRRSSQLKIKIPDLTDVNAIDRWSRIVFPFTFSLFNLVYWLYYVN
T1 sequence (P18507 40-475): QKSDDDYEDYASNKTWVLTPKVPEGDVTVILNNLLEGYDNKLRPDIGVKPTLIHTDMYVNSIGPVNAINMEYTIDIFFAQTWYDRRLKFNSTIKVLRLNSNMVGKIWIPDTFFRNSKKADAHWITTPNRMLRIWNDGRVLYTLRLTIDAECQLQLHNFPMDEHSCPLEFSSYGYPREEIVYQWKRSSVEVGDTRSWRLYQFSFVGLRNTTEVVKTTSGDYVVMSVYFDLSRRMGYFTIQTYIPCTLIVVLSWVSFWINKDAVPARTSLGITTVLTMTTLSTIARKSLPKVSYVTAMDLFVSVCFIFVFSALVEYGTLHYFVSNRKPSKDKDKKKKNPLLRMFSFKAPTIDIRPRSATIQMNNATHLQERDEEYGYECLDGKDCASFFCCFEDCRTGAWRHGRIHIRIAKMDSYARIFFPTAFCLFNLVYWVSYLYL
Briefly: Binding activity of test compounds on GABAAR: inhibition of [3H]Ro15-1788 binding.
Details: not given
The gist of the method: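 Membranes from dexamethasone-induced Ltk cells (α5 line: 0.5 μM, 1 day); binding with [3H]Ro15-1788 for 1 h at 4 °C in 50 mM KH2PO4, 1 mM EDTA, 0.2 M KCl, pH 7.4, 0.2 mg/ml α5 protein. Nonspecific binding defined by 10 μM diazepam; filtration, scintillation counting, triplicates.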
`CC#Cc1nc(C)n2c1Cn1c(COC(C)C)nnc1-c1cc(Cl)ccc1-2` [Compound 306] gave a negative logarithm of the Ki (pKi) below 6.00.
Take `CC(C)OCc1nnc2n1Cc1c(-c3cnco3)ncn1-c1ccc(Cl)cc1-2` [Compound 315]: the pKi is below 6.00.

Still in this experiment, the particulars now being: GABA α5 Binding Ki Values, inhibition of [3H]Ro15-1788 binding; reported as ranges.
Consider `CC(C)OCc1nnc2n1Cc1c(C3=N[C@H](c4ccccc4)CO3)ncn1-c1ccc(Cl)cc1-2` [Compound 268], for which the pKi is above 7.00.
`CC(C)OCc1nnc2n1Cc1c(C3=N[C@@H](c4ccccc4)CO3)ncn1-c1ccc(Cl)cc1-2` [Compound 270] showed a pKi above 7.00.
The same measure, in the same setting: for `CCOCc1nnc2n1Cc1c(C3=N[C@H](c4ccccc4)CO3)ncn1-c1ccc(Cl)cc1-2` [Compound 271] the value was above 7.00; for `COc1ccc2c(c1)-n1nnc(-c3ccccc3)c1Cc1c(-c3nc(C(C)C)no3)ncn1-2` [Compound 272], below 6.00; for `COc1ccc2c(c1)-n1nnc(-c3ccccc3)c1Cc1c(-c3nc(C)no3)ncn1-2` [Compound 273], 6.00 to 7.00.
Molecule `COCc1nnc2n1Cc1c(COc3ccccn3)ncn1-c1ccc(Cl)cc1-2` [Compound 274] showed a pKi of 6.00 to 7.00.
`CCOCc1nnc2n1Cc1c(C3=N[C@@H](c4ccccc4)CO3)ncn1-c1ccc(Cl)cc1-2` [Compound 275]: the pKi was above 7.00.
As to `COc1ccc2c(c1)-n1nnc(C)c1Cc1c(-c3nc(C(C)C)no3)ncn1-2` [Compound 277], the pKi is above 7.00.
The same measure, in the same setting: for `CCOCc1nnc2n1Cc1c(-c3cc(C)no3)ncn1-c1ccc(Cl)cc1-2` [Compound 278] the value was above 7.00; for `CCOC(=O)c1ncn2c1Cc1c(-c3ccccc3Cl)nnn1-c1cc(OC)ccc1-2` [Compound 279], below 6.00.
Turning to `Cc1cc(-c2ncn3c2Cn2c(COC(C)C)nnc2-c2cc(Cl)ccc2-3)on1` [Compound 281], the pKi was 6.00 to 7.00.
The molecule `COCc1nnc2n1Cc1c(C3=N[C@H](C)CO3)ncn1-c1ccc(Cl)cc1-2` [Compound 282] showed a pKi above 7.00.
For `COCc1nnc2n1Cc1c(C3=N[C@@H](C)CO3)ncn1-c1ccc(Cl)cc1-2` [Compound 283], the pKi was 6.00 to 7.00.
As to `C#Cc1ccc2c(c1)-c1nnc(COC)n1Cc1c(C3=N[C@H](C(C)C)CO3)ncn1-2` [Compound 284], the pKi was 6.00 to 7.00.
`COCc1nnc2n1Cc1c(C#Cc3ccccc3)ncn1-c1ccc(Cl)cc1-2` [Compound 285] had a pKi above 7.00.
`CC(C)OCc1nnc2n1Cc1c(C3=N[C@H](C)CO3)ncn1-c1ccc(Cl)cc1-2` [Compound 286] gave a pKi of 6.00 to 7.00.
Consider `CC(C)OCc1nnc2n1Cc1c(C3=N[C@@H](C)CO3)ncn1-c1ccc(Cl)cc1-2` [Compound 287], for which the pKi is 6.00 to 7.00.
On the same count and under the same terms, for `C#Cc1ncn2c1Cn1c(COC(C)C)nnc1-c1cc(Cl)ccc1-2` [Compound 288] the value was above 7.00; for `COc1ccc2c(c1)-n1nncc1Cc1c(C3=N[C@@H](c4ccccc4)CO3)ncn1-2` [Compound 289], above 7.00.
`COc1ccc2c(c1)-n1nncc1Cc1c(C3=N[C@H](C)CO3)ncn1-2` [Compound 291] gave a pKi above 7.00.
For `COc1ccc2c(c1)-n1nncc1Cc1c(C3=N[C@@H](C)CO3)ncn1-2` [Compound 292], the negative-log Ki (pKi) was 6.00 to 7.00.
Consider `COCc1nnc2n1Cc1c(C#Cc3ccccc3C)ncn1-c1ccc(Cl)cc1-2` [Compound 293], for which the pKi is above 7.00.
In turn, `COCc1nnc2n1Cc1c(C3=NC[C@@H](C)O3)ncn1-c1ccc(Cl)cc1-2` [Compound 294] showed a pKi above 7.00.
For `COCc1nnc2n1Cc1c(C3=NC[C@H](C)O3)ncn1-c1ccc(Cl)cc1-2` [Compound 295], the pKi was above 7.00.
Still for that read-out and setting: for `COCc1nnc2n1Cc1c(-c3ncc(C)o3)ncn1-c1ccc(Cl)cc1-2` [Compound 296] the value was above 7.00.
Molecule `COCc1nnc2n1Cc1c(C3=NC(C)(C)CO3)ncn1-c1ccc(Cl)cc1-2` [Compound 297] gave a pKi of 6.00 to 7.00.
Regarding `COCc1nnn2c1Cc1c(C3=N[C@@H](C)CO3)ncn1-c1ccc(OC)cc1-2` [Compound 298], the pKi is 6.00 to 7.00.
Consider `COCc1nnn2c1Cc1c(C3=N[C@@H](Cc4ccccc4)CO3)ncn1-c1ccc(Cl)cc1-2` [Compound 299], for which the pKi was 6.00 to 7.00.
Take `COCc1nnn2c1Cc1c(C3=N[C@@H](C)CO3)ncn1-c1ccc(Cl)cc1-2` [Compound 300]: the pKi was 6.00 to 7.00.
On the same count and under the same terms, for `C#Cc1ccc2c(c1)-c1nnc(COC)n1Cc1c(-c3nc(-c4ccccc4)co3)ncn1-2` [Compound 302] the value was above 7.00.
Molecule `Cc1cc(-c2ncn3c2Cn2c(COCC(F)(F)F)nnc2-c2cc(Cl)ccc2-3)on1` [Compound 303] gave a pKi of 6.00 to 7.00.
On to `FC(F)(F)COCc1nnc2n1Cc1c(C3=N[C@@H](c4ccccc4)CO3)ncn1-c1ccc(Cl)cc1-2` [Compound 304], for which the pKi was above 7.00.
`C#Cc1nc(C)n2c1Cn1c(COC(C)C)nnc1-c1cc(Cl)ccc1-2` [Compound 305] gave a pKi of 6.00 to 7.00.
The molecule `CCOCc1nnc2n1Cc1c(C#Cc3ccccc3F)ncn1-c1ccc(Cl)cc1-2` [Compound 307] showed a pKi above 7.00.
The same measure, in the same setting: for `CCOC(=O)c1ncn2c1Cn1c(COCC(F)(F)F)nnc1-c1cc(Cl)ccc1-2` [Compound 308] the value was above 7.00; for `FC(F)(F)COCc1nnc2n1Cc1c(C3=NCCO3)ncn1-c1ccc(Cl)cc1-2` [Compound 309], 6.00 to 7.00; for `Cc1ccccc1C#Cc1ncn2c1Cn1c(COC(C)C)nnc1-c1cc(Cl)ccc1-2` [Compound 310], above 7.00.
In turn, `CCOCc1nnc2n1Cc1c(C#Cc3ccccc3C)ncn1-c1ccc(Cl)cc1-2` [Compound 311] gave a pKi above 7.00.
Regarding `Cc1coc(-c2ncn3c2Cn2c(COCC(F)(F)F)nnc2-c2cc(Cl)ccc2-3)n1` [Compound 312], the pKi was 6.00 to 7.00.
Same read-out and setting: for `FC(F)(F)COCc1nnc2n1Cc1c(-c3nc(-c4ccccc4)co3)ncn1-c1ccc(Cl)cc1-2` [Compound 313] the value was above 7.00; for `COCc1nnc2n1Cc1c(-c3cnco3)ncn1-c1ccc(Cl)cc1-2` [Compound 314], 6.00 to 7.00.
Consider `CC(C)OCc1nnc2n1Cc1c(C3=NCCO3)ncn1-c1ccc(Cl)cc1-2` [Compound 316], for which the pKi was 6.00 to 7.00.
In turn, `CCOCc1nnc2n1Cc1c(C3=NCCO3)ncn1-c1ccc(Cl)cc1-2` [Compound 317] had a pKi above 7.00.
`CCOC(=O)c1ncn2c1Cc1c(C#Cc3ccccc3)nnn1-c1cc(OC)ccc1-2` [Compound 318] showed a pKi of 6.00 to 7.00.
For the molecule `COCc1nnc2n1Cc1c(C3=N[C@@H](c4ccccc4F)CO3)ncn1-c1ccc(Cl)cc1-2` [Compound 319], the pKi was above 7.00.
On the same count and under the same terms, for `COCc1nnc2n1Cc1c(C3=N[C@@H](c4ccc(F)cc4)CO3)ncn1-c1ccc(Cl)cc1-2` [Compound 320] the value was above 7.00.
`CC(C)OCc1nnc2n1Cc1c(C3=N[C@@H](c4ccccc4F)CO3)ncn1-c1ccc(Cl)cc1-2` [Compound 321] showed a negative-log Ki (pKi) of 6.00 to 7.00.
The molecule `CCOCc1nnc2n1Cc1c(C3=N[C@@H](c4ccccc4F)CO3)ncn1-c1ccc(Cl)cc1-2` [Compound 322] showed a negative-log Ki (pKi) above 7.00.
For the molecule `COCc1nnc2n1Cc1c(-c3nc(-c4ccccc4F)co3)ncn1-c1ccc(Cl)cc1-2` [Compound 323], the pKi was above 7.00.
Molecule `COCc1nnc2n1Cc1c(-c3nc(-c4ccc(F)cc4)co3)ncn1-c1ccc(Cl)cc1-2` [Compound 324] gave a pKi above 7.00.
On to `CCOCc1nnc2n1Cc1c(C3=N[C@@H](c4ccc(F)cc4)CO3)ncn1-c1ccc(Cl)cc1-2` [Compound 325], for which the pKi is above 7.00.
`CC(C)OCc1nnc2n1Cc1c(C3=N[C@@H](c4ccc(F)cc4)CO3)ncn1-c1ccc(Cl)cc1-2` [Compound 326] showed a pKi above 7.00.
In turn, `CC(C)OCc1nnc2n1Cc1c(-c3ncco3)ncn1-c1ccc(Cl)cc1-2` [Compound 327] had a pKi above 7.00.
The same measure, in the same setting: the same measure for `C#Cc1ncn2c1Cn1c(COC)nnc1-c1cc(OC)ccc1-2` [Compound 328, 5-ethynyl-15-methoxy-9-(methoxymethyl)-2,4,8,10,11-pentaazatetracyclo[11.4.0.0^2,^6.0^8,^12]heptadeca-1(17),3,5,9,11,13,15-heptaene]: above 7.00; for `COCc1nnc2n1Cc1c(C3=N[C@@H](c4ccccc4C)CO3)ncn1-c1ccc(Cl)cc1-2` [Compound 330]: above 7.00.
Molecule `COCc1nnc2n1Cc1c(C3=N[C@@H](c4ccccc4OC)CO3)ncn1-c1ccc(Cl)cc1-2` [Compound 331] gave a negative logarithm of the Ki (pKi) above 7.00.
Consider `COCc1nnc2n1Cc1c(C3=N[C@@H](c4ccc(OC)cc4)CO3)ncn1-c1ccc(Cl)cc1-2` [Compound 332], for which the pKi was above 7.00.
In turn, `COCc1nnc2n1Cc1c(C3=N[C@@H](c4cccc(OC)c4)CO3)ncn1-c1ccc(Cl)cc1-2` [Compound 333] showed a pKi above 7.00.
`COCc1nnc2n1Cc1c(C3=N[C@@H](c4ccc(Cl)cc4)CO3)ncn1-c1ccc(Cl)cc1-2` [Compound 334] had a negative-log Ki (pKi) above 7.00.
With `COCc1nnc2n1Cc1c(C3=N[C@@H](c4cc(F)ccc4F)CO3)ncn1-c1ccc(Cl)cc1-2` [Compound 335], the pKi is above 7.00.
`COCc1nnc2n1Cc1c(C3=N[C@@H](c4cccc(C(F)(F)F)c4)CO3)ncn1-c1ccc(Cl)cc1-2` [Compound 336] showed a negative logarithm of the Ki (pKi) of 6.00 to 7.00.
Consider `COCc1nnc2n1Cc1c(C3=N[C@@H](c4ccc(C(F)(F)F)cc4)CO3)ncn1-c1ccc(Cl)cc1-2` [Compound 337], for which the pKi is above 7.00.
As to `COCc1nnc2n1Cc1c(C3=N[C@@H](c4cccc5ccccc45)CO3)ncn1-c1ccc(Cl)cc1-2` [Compound 338], the pKi is above 7.00.
As to `CC#Cc1ncn2c1Cn1c(COC)nnc1-c1cc(Cl)ccc1-2` [Compound 339], the pKi is above 7.00.
Turning to `COCc1nnc2n1Cc1c(C3=N[C@H](c4ccccc4)CO3)ncn1-c1ccc(OC)cc1-2` [Compound 340], the pKi was above 7.00.
As for `CCOCc1nnc2n1Cc1c(-c3ncco3)ncn1-c1ccc(Cl)cc1-2` [Compound 341], the pKi was above 7.00.

Source of the values: US20180170941A1 (priority 2016, published 2018).
